Measurements reported in patent US20030023386A1, “Metabolome profiling methods using chromatographic and spectroscopic data in pattern recognition analysis” (priority 2001, published 2003).

What was measured:
[1] = system: corn (Zea mays) seedlings (Pioneer 3514); experiment: Neural network recognition of treatment from 1H NMR spectra of corn seedling extracts (training/validation cycle); type: in vivo; settings: for Network Recognition: validation set sel4c.pat, NN trained with 15 spectra (sel4.pat), meristematic tissue harvested 24 hours after treatment
Experimental: For example, corn (Zea mays) seeds (Pioneer 3514) were set to germinate in paper towel rolls in tap water covered with plastic foil (to minimize evaporation) for 5 days in the growing chamber. Conditions were adjusted to “summer days” (day/night 14/10 hours, controlled temperature 27° C. and humidity 70%). After germination the seedlings were visually inspected. Seedlings that were homogeneous in size and appearance were selected and set to grow in hydroponic Hoagland culture solution.
Each seedling was set in a 50 mL dark bottle in 25 mL Hoagland nutrient solution. The plants were then grown for 5 more days after they had reached the three-leaf stage. At this point the hydroponic solution was changed and the seedlings were treated as follows:
Different herbicide stock solutions in acetone were added in concentrated form to the hydroponic solution or, in the case of control plants with 20 μL acetone, or
The hydroponic solution was replaced by a solution containing different concentrations of herbicides, or just hydroponic nutrient solution for control plants.
All herbicides were technical grade. The plants were returned to the growing chamber after treatment. After 24 hours, the plants were harvested by excising between the coleoptile and the first leaf collar. The first leaf sheet was separated and the meristematic tissue collected was flash frozen in liquid nitrogen in a cryogenic 3 ml tube and stored in the liquid nitrogen freezer until further use.
For example, frozen meristematic tissue was placed in a mortar and liquid nitrogen was added. The pestle was also allowed to cool in the liquid nitrogen. When the liquid nitrogen was evaporated, the plant tissue was pulverized in the mortar. Then, 2.4 mL of 0.25N aq. HCl solution were added to the mortar and the sample was further mixed with the pestle. The suspension was placed into an Eppendorf centrifuge tube and set in ice until all the samples for an experiment were processed for centrifugation. The samples were centrifuged at 14000 g, at 4° C., for 60 minutes. The supernatant was separated from the pellet and 0.8 mL taken and mixed with 0.2 mL D2O (with TSP 0.05 w/v for NMR reference) for the lock signal in the spectrometer. The samples were kept in ice until NMR measurement.
(§1) The proton NMR spectra of plant extracts were recorded using a Bruker AMX 500 NMR spectrometer equipped with a TXI 5 mm probe. The probe temperature was carefully regulated to better than ±0.1 K using the Bruker/Haake variable temperature accessory, and all spectra were recorded under identical experimental conditions, as follows:
The NMR spectra were multiplied with an exponential function (LB parameter=0.5 Hz), Fourier transformed, and manually phase- and baseline-corrected. Spectra were, in an automatic fashion, exported into JCAMP-DX format and converted into pattern vectors for pattern recognition approaches. A window of points was removed from the central part of each vector prior to analysis, to avoid the water residual signal as shown in FIG. 2. Also, data points were removed at the low field and high field portions of the spectral vector because no resonance signals were detectable in these regions.
A first set of 71 spectra, with 3 batches of 6-9 control samples, 2 batches with 15 PURSUIT® treated samples, and one batch each with 6(4) Sethoxydim, Glyphosate, and Diuron treated samples. Two plants fouled after the herbicide treatment phase, and were treated as separate category, exemplifying samples with very different properties. […]

[2] = system: Corn plants (Zea mays), Pioneer 3514; experiment: Herbicide mode-of-action recognition by 1H NMR of plant isolates and neural network analysis (Example 8); type: in vivo; settings: for output unit activation: small NN trained with first batch, tested on second batch, four herbicide groups and control; for herbicide treatment group assigned by the neural network: chemically different AHAS inhibitors, output unit activation vs. treatment group
Experimental: Zea mays seeds (Pioneer 3514) were set to germinate in paper towel rolls in tap water for 5 days in the growing chamber. The environment was adjusted to “summer conditions” (day/night ratio of 14/10 hours, regulated temperature of 27° C. and humidity of 70%). After germination the seedlings were visually inspected. Seedlings that were homogeneous in size and appearance were selected, set in 50-ml amber bottles in 25-ml Hoagland nutrient solution (12 ml micronutrients stock solution, 12 ml FeEDTA (5 g/100 ml), 2.4 ml KH2PO4 (1 M), 24 ml MgSO4 (1 M), 60 ml KNO3 (1 M), 60 ml Ca(NO3)2 (1 M), and 60 ml MES buffer (200 mM), diluted to 12 litre with deionized water) and grown for 5 more days, after which they reached the three-leaf stage. At this point, 20 μl of a stock solution of technical grade herbicide in acetone (see Table I) was added to the hydroponic solution or applied to the second leaf (with similar results). The control group of “Untreated Plants” received 20 μl acetone only and all of the plants were returned to the growing chamber.
Twenty-four hours post-treatment, the plants were harvested by excising between the coleoptile and the first leaf collar. At this time, the plants show only slight growth stunting in response to the treatments. The first leaf sheet was separated and the meristematic tissue (approximately 250 to 300 mg per plant) was collected, flash frozen in liquid nitrogen in a cryogenic 3 ml tube, and stored in a liquid nitrogen freezer until further use. The plant meristems were each pulverized in a mortar (under liquid N2), suspended in 2.4 ml of HCl solution (0.25N) and centrifuged at 14000 g, 4° C., for 60 minutes. The NMR samples were prepared from 0.8 ml of the supernatants and 0.2 ml D2O (with TSP 0.05 w/v) and kept on ice.
as §1, with “500 MHz ^1H” for “proton”, “regulated” for “regulated to better than ±0.1 K”, “shown in Table 10:” for “follows:”
The time-domain NMR spectra (“FIDs”) were exponential multiplied (LB=0.5 Hz), Fourier transformed, and then phase- and baseline-corrected manually. The frequency domain were exported by the NMR software as J-CAMP formatted files, which were stored in a UNIX subdirectory for “preprocessing” via NN_Tools, as described below.
The frequency domain NMR spectra were “preprocessed” by NN_Tools as follows: J-CAMP formatted spectra files were converted into vectors (8 k real data points), and the files were renamed (renumbered) in order to be processed by further programs in an automatic fashion. A window of points was cut from the central part (around O1) of each vector to delete the residual water signal. Then points were cut from the low field and high field parts of the vector, because no resonance signals were detectable in these regions. Groups of typically five (5) adjacent points were averaged in histogram fashion (“bining”) and the resulting “preprocessed” spectrum comprised 1080 data points. Finally, vertical scaling was applied to meet the signal amplitude requirements of the neural network software.
The artificial neural network calculations described in the report were performed using a standard software package, the Stuttgart Neural Network Simulator (SNNS), on a Silicon Graphics Inc. (SGI) UNIX workstation. A convenient interface called NN_Tools, was developed in-house to perform NMR spectral preprocessing and to format the raw data for input to SNNS. NN_Tools comprises a set of Perl scripts which form patterns out of NMR spectra that can be input automatically to SNNS for the training, validation, and testing steps of neural network simulation. This free software package (“freeware”) was developed at the Institute for Parallel and Distributed High Performance Systems at the University of Stuttgart, Germany. […]

[3] = system: corn (Zea mays) seedlings; experiment: Blind test: NN recognition of mode-of-action of herbicides not used in training; type: in vivo; settings: NN trained only with untreated, PURSUIT, Diuron, Sethoxydim, Glyphosate; different herbicide concentrations
Experimental: As an example, we have used the NN trained and validated as shown in the above Example 3. It was trained to recognize untreated, PURSUIT®, Diuron, Sethoxydim, and Glyphosate treatment. In a blind test, we presented pattern from samples that were treated with no herbicide or different concentrations of various herbicides. In addition to the herbicides used in the training set, two other imidazolinones: ASSERT® and ARSENAL® (imazapyr and imazamethabenz) and two sulfonylureas GLEAN® and OUST® (chlorsulfuron and sulfometuron) were chosen, and the plants were treated as described above. For the blind test of the ANN analysis tool the samples only the two first to batches contributed samples to the training set. Thereby, the neuronal network had to truly recognized new batches with many samples having compound treatments applied that were unknown to the NN. In summary, we found a complete success of the methodology: The neuronal network classifies all untreated samples correctly as untreated, assigns the correct herbicide treatment for all herbicides that have been previously presented to the NN during training, even if such samples originated from batches that were not part of the NN training.
Note that the learning output target for the test spectra is zero in all cases in FIG. 4a and 4b. The total SSE in the calculation was high because of the difference between the given output value (zero) and the calculated value, but the spectra were correctly classified in all cases as belonging to the second output node, which is imazethapyr or AHAS inhibition. Similar results were obtained for the second set of experiments.

[4] = system: WT corn (Pioneer 3514, PURSUIT sensitive); experiment: Phenotypic response of corn lines to PURSUIT in hydroponic medium, wild type line; type: in vivo, Zea mays
Experimental: In these experiments, seedlings from three genetically different corn seed lines were germinated, grown in hydroponic medium, excised, extracted and measured as described before. The plants belong to “wild type” (WT, Pioneer 3514, PURSUIT® sensitive), imidazolinone-tolerant (IT, Gerst 8541 heterozygotic, PURSUIT® tolerant), and imidazolinone-resistant (IR, Pioneer 3395, homozygotic, PURSUIT® resistant) lines.
Two batches with five seedlings each from WT, IR, and IT lines, were grown at various levels of PURSUIT® concentration, as follows in Table 5:
The different lines of corn can be distinguished phenotypically at growing levels of herbicide treatment. […] For WT, herbicidal effects are already observed at the lowest (41 μM) PURSUIT® concentration. On the other hand even the IR lines are affected by concentrations of imidazolinones so high as 4 mM. The plants were harvested after only 24 hours after treatment such that phenotypic differences were restricted to the development (or lack) of the fourth leaf. It is important to harvest at an early stage to avoid that the plants become senescent. The senescence process produces accumulation of a series of metabolites that would obscure the metabolic profile response associated with one specific mode of action.

[5] = system: IR corn (Pioneer 3395, homozygotic, PURSUIT resistant); settings: saturated solution of PURSUIT; cited from earlier work

CCC/C(=N\OCC)C1=C(O)CC(CC(C)SCC)CC1=O (stereo not drawn) [Sethoxydim]
Network Recognition [1]: Sethoxydim | output unit activation [2]: ~1

COc1nc(C)nc(NC(=O)NS(=O)(=O)c2ccccc2Cl)n1 [GLEAN®, chlorsulfuron]
NN classification of treatment / mode-of-action in blind test [3]: correctly assigned as AHAS inhibitors | herbicide treatment group assigned by the neural network [2]: imazethapyr

Cc1cc(C)nc(NC(=O)NS(=O)(=O)c2ccccc2C(=O)O)n1 [OUST®, sulfometuron]
NN classification of treatment / mode-of-action in blind test [3]: correctly assigned as AHAS inhibitors | herbicide treatment group assigned by the neural network [2]: imazethapyr

imazamethabenz [ASSERT®]
NN classification of treatment / mode-of-action in blind test [3]: correctly assigned as AHAS inhibitors | herbicide treatment group assigned by the neural network [2]: imazethapyr

CC(C)C1(C)N=C(c2ncccc2C(=O)O)NC1=O (stereo not drawn) [ARSENAL®, imazapyr]
NN classification of treatment / mode-of-action in blind test [3]: correctly assigned as AHAS inhibitors | herbicide treatment group assigned by the neural network [2]: imazethapyr

O=C(O)CNCP(=O)(O)O [Glyphosate]
Network Recognition [1]: Glyphosate | output unit activation [2]: ~1

CC(NC(=O)C(C)NC(=O)C(N)CCP(C)(=O)O)C(=O)O (stereo not drawn) [Bialaphos]
signs of damage of treated plants ([2]; 24-hours post-application, bialaphos formulation): # presented much stronger signs of damage than all the others. Formulations usually produce an effect of faster absorption and sometimes translocation that increases the metabolic response.

CN(C)C(=O)Nc1ccc(Cl)c(Cl)c1 [Diuron]
NMR spectral changes of treated samples versus controls ([1]; 1H NMR of corn seedling extracts): most changes versus controls in the resonance region of the sugar-proton | Network Recognition [1]: Diuron | output unit activation [2]: ~1

CCc1cnc(C2=NC(C)(C(C)C)C(=O)N2)c(C(=O)O)c1 (stereo not drawn) [PURSUIT ®, imazethapyr]
Network Recognition [1]: PURSUIT ® | PURSUIT concentration at which herbicidal effects are observed ([4]; WT line, lowest concentration tested, hydroponic): ≤ 41 µM | phenotypic response observed ([4]; growing levels of herbicide treatment, within 48 hours): total arrest on the growth of the plants and their wilting | output unit activation [2]: ~1 | phenotypic response of IR plants [5]: growth arrest
